Results on 4 compounds are retold here after patent US20120238549A1, “Nuclear Hormone Receptor Modulators” (ABBOTT LABORATORIES, priority 2011, published 2012).

Each structure is given as a SMILES string.

The experiment has as its target T1, Glucocorticoid Receptor (GR) (Homo sapiens, UniProt P04150).
T1 construct: purchased Invitrogen P2893
T1 sequence (P04150 1-777): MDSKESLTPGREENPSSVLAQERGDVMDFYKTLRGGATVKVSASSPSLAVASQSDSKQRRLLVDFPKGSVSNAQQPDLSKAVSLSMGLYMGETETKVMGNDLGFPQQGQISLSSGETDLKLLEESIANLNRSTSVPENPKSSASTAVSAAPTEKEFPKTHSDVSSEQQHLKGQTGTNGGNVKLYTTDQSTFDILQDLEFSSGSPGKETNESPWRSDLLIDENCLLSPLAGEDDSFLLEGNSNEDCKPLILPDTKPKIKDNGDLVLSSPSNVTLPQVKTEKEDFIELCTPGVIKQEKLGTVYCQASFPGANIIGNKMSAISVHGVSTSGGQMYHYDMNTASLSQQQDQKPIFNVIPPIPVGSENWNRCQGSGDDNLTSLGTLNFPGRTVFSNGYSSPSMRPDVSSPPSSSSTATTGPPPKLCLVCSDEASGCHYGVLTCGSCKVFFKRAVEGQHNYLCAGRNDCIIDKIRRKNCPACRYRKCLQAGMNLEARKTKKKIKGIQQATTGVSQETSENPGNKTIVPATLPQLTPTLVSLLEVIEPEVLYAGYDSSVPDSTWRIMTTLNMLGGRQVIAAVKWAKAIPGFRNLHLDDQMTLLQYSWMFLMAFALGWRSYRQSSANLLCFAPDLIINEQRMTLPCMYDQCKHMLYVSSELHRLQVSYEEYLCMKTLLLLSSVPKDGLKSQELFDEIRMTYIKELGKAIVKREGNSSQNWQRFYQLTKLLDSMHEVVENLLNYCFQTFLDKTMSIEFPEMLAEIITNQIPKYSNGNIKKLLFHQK
Description: GR Florescence Polarization Assay (PolarScreen Glucocorticoid Receptor Competitor Assay, Red). The following applies: Fluorescense polarization binding ranges; competition with fluorescent glucocorticoid, incubated overnight at 4° C. The procedure, abridged:
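Competitive fluorescence polarization using fluorescent glucocorticoid tracer and human GR in kit buffer. Compounds serially diluted 1:4 in DMSO, incubated with tracer and GR overnight at 4 °C before polarization read.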
As for `CC[C@@]1(O)CC[C@@]2(Cc3ccccc3)c3ccc(C(=O)Nc4ncccc4C)cc3CCC[C@H]2C1` [Example 73], the IC50 is < 100 nM.
The same measure for `CC[C@]1(O)CC[C@]2(Cc3ccccc3)c3ccc(C(=O)Nc4cccnc4C)cc3C(=O)CC[C@@H]2C1` (single isomer, unassigned) [Example 25]: 1000 to 10000 nM.
Then `CCC[C@]1(O)CC[C@]2(CC)c3ccc(C(=O)Nc4cccnc4C)cc3OCC[C@@H]2C1` (single isomer, unassigned) [Example 120], with 100 to 1000 nM; and `Cc1ncccc1NC(=O)c1ccc2c(c1)CN(C)C[C@H]1C[C@@H](O)CC[C@@]21Cc1ccccc1` [Example 109, (3S,4aS,11bS)-11b-benzyl-3-hydroxy-6-methyl-N-(2-methylpyridin-3-yl)-2,3,4,4a,5,6,7,11b-octahydro-1H-dibenzo[c,e]azepine-9-carboxamide], with > 10000 nM.
